# Source: paper PMC7587962, “Evaluation of Cytotoxicity and α-Glucosidase Inhibitory Activity of Amide and Polyamino-Derivatives of Lupane Triterpenoids” (Molecules, 2020)
# Assays:
# HCT-116 = test: NCI-60 SRB screen: colon cancer HCT-116; type: cell-based; conditions: Homo sapiens, 48 h, HCT-116
# U251 = test: NCI-60 SRB screen: CNS cancer U251; type: cell-based; conditions: Homo sapiens, U251
# Colon Cancer subpanel = test: NCI-60 screen, subpanel Colon Cancer
# [1] = tested on: 60 human tumor cell lines; conditions: single dose 10 µM
# Breast cancer subpanel = test: NCI-60 screen, subpanel Breast cancer
# SF-295 = test: NCI-60 SRB screen: CNS cancer SF-295; type: cell-based, human; conditions: SF-295
# HT29 = test: NCI-60 SRB screen: colon cancer HT29; type: cell-based; conditions: Homo sapiens, HT29
# SK-MEL-5 = test: NCI-60 SRB screen: melanoma SK-MEL-5; type: cell-based, human; conditions: SK-MEL-5
# CCRF-CEM = test: NCI-60 SRB screen: leukemia CCRF-CEM; type: cell-based; conditions: Homo sapiens, 48 h
# MALME-3M = test: NCI-60 SRB screen: melanoma MALME-3M; type: cell-based, human; conditions: MALME-3M
# HOP-92 = test: NCI-60 SRB screen: non-small cell lung cancer HOP-92; type: cell-based, human; conditions: HOP-92
# DU-145 = test: NCI-60 SRB screen: prostate cancer DU-145; type: cell-based, human; conditions: DU-145
# COLO 205 = test: NCI-60 SRB screen: colon cancer COLO 205; type: cell-based, human; conditions: COLO 205
# HCC-2998 = test: NCI-60 SRB screen: colon cancer HCC-2998; type: cell-based, human; conditions: HCC-2998
# NCI/ADR-RES = test: NCI-60 SRB screen: ovarian cancer NCI/ADR-RES; type: cell-based, human
# NCI-H226 = test: NCI-60 SRB screen: non-small cell lung cancer NCI-H226; type: cell-based, human; conditions: NCI-H226
# RXF 393 = test: NCI-60 SRB screen: renal cancer RXF 393; type: cell-based, human; conditions: RXF 393
# SNB-19 = test: NCI-60 SRB screen: CNS cancer SNB-19; type: cell-based, human; conditions: SNB-19
# A498 = test: NCI-60 SRB screen: renal cancer A498; type: cell-based, human; conditions: A498
# SW-620 = test: NCI-60 SRB screen: colon cancer SW-620; type: cell-based; conditions: Homo sapiens, 48 h, SW-620
# SR = test: NCI-60 SRB screen: leukemia SR; type: cell-based; conditions: Homo sapiens, 48 h
# Leukemia subpanel = test: NCI-60 screen, subpanel Leukemia
# HCT-15 = test: NCI-60 SRB screen: colon cancer HCT-15; type: cell-based, human; conditions: HCT-15
# Prostate cancer subpanel = test: NCI-60 screen, subpanel Prostate cancer
# EKVX = test: NCI-60 SRB screen: non-small cell lung cancer EKVX; type: cell-based, human
# MDA-MB-231/ATCC = test: NCI-60 SRB screen: breast cancer MDA-MB-231/ATCC; type: cell-based; conditions: Homo sapiens, 48 h
# HOP-62 = test: NCI-60 SRB screen: non-small cell lung cancer HOP-62; type: cell-based, human; conditions: HOP-62
# CNS cancer subpanel = test: NCI-60 screen, subpanel CNS cancer
# UACC-257 = test: NCI-60 SRB screen: melanoma UACC-257; type: cell-based, human; conditions: UACC-257
# KM12 = test: NCI-60 SRB screen: colon cancer KM12; type: cell-based, human; conditions: KM12
# IGROV1 = test: NCI-60 SRB screen: ovarian cancer IGROV1; type: cell-based, human; conditions: IGROV1
# UO-31 = test: NCI-60 SRB screen: renal cancer UO-31; type: cell-based, human; conditions: UO-31
# NSCL cancer subpanel = test: NCI-60 screen, subpanel NSCL cancer
# TK-10 = test: NCI-60 SRB screen: renal cancer TK-10; type: cell-based, human; conditions: TK-10
# Renal Cancer subpanel = test: NCI-60 screen, subpanel Renal Cancer
# NCI-H322M = test: NCI-60 SRB screen: non-small cell lung cancer NCI-H322M; type: cell-based, human
# SK-MEL-2 = test: NCI-60 SRB screen: melanoma SK-MEL-2; type: cell-based, human; conditions: SK-MEL-2
# [2] = single dose 10 µM, read-out: Percentage Cell Growth
# [3] = five concentrations, SRB, read-out: GI50
# [4] = Homo sapiens, five concentrations, 48 h, SRB, read-out: GI50
smiles,measurement,setting,value
C=C(C)[C@@H]1CC[C@]2(C(=O)NCCNCCNCCN)CC[C@]3(C)[C@H](CC[C@@H]4[C@@]5(C)CCC(=O)C(C)(C)[C@@H]5CC[C@]43C)[C@@H]12 [Compound 11],activity at 10 µM,HCT-116; [2],-80.7%
same,GI50,HCT-116; [3],6.65 µM
same,activity at 10 µM,"U251; U-251, 48 h, single dose 10 µM, read-out: Percentage Cell Growth",-81.8%
same,GI50,"U251; U-251, five concentrations, 48 h, SRB, read-out: GI50",7.34 µM
same,"MID b, average sensitivity of all cell line of particular subpanel",Colon Cancer subpanel,7.68 µM
same,"Selectivity, ratio MID a: MID b",Colon Cancer subpanel,1.19
same,"cancer cell lethality, range of percentage growth",[1]; cell lines with negative growth,−4.36% to −96.35%
same,cases of cancer cell lethality,[1]; number of cell lines,50
same,"MID b, average sensitivity of all cell line of particular subpanel",Breast cancer subpanel,8.04 µM
same,"Selectivity, ratio MID a: MID b",Breast cancer subpanel,1.14
same,GI50,SF-295; [4],9.42 µM
same,Percentage Cell Growth,SF-295; single dose 10 µM,−54.47%
same,activity at 10 µM,"HT29; HT-29, 48 h, single dose 10 µM, read-out: Percentage Cell Growth",-77.4%
same,GI50,"HT29; HT-29, five concentrations, 48 h, SRB, read-out: GI50",7.17 µM
same,GI50,SK-MEL-5; [4],6.98 µM
same,Percentage Cell Growth,SK-MEL-5; single dose 10 µM,−86.18%
same,activity at 10 µM,CCRF-CEM; [2],-11.3%
same,GI50,CCRF-CEM; [3],9.65 µM
same,GI50,MALME-3M; [4],7.4 µM
same,Percentage Cell Growth,MALME-3M; single dose 10 µM,−72.82%
same,Percentage Cell Growth,HOP-92; single dose 10 µM,−65.19%
same,GI50,HOP-92; [4],2930 nM
same,Percentage Cell Growth,DU-145; single dose 10 µM,−56.67%
same,GI50,DU-145; [4],7.47 µM
same,Percentage Cell Growth,COLO 205; single dose 10 µM,−47.48%
same,GI50,COLO 205; [4],8.74 µM
same,Percentage Cell Growth,HCC-2998; single dose 10 µM,−90.04%
same,GI50,HCC-2998; [4],7.16 µM
same,GI50,NCI/ADR-RES; [4],8.41 µM
same,Percentage Cell Growth,NCI/ADR-RES; single dose 10 µM,−73.33%
same,GI50,NCI-H226; [4],7.74 µM
same,Percentage Cell Growth,NCI-H226; single dose 10 µM,74.30%
same,GI50,RXF 393; [4],5.6 µM
same,Percentage Cell Growth,RXF 393; single dose 10 µM,−71.88%
same,GI50,SNB-19; [4],8.5 µM
same,Percentage Cell Growth,SNB-19; single dose 10 µM,−78.54%
same,Percentage Cell Growth,A498; single dose 10 µM,80.81%
same,GI50,A498; [4],42.6 µM
same,activity at 10 µM,SW-620; [2],-76.7%
same,GI50,SW-620; [3],7.91 µM
same,activity at 10 µM,SR; [2],4.96%
same,GI50,SR; [3],5.91 µM
same,"MID b, average sensitivity of all cell line of particular subpanel",Leukemia subpanel,7.73 µM
same,"Selectivity, ratio MID a: MID b",Leukemia subpanel,1.19
same,Percentage Cell Growth,HCT-15; single dose 10 µM,−36.56%
same,GI50,HCT-15; [4],7.65 µM
same,"MID b, average sensitivity of all cell line of particular subpanel",Prostate cancer subpanel,6.87 µM
same,"Selectivity, ratio MID a: MID b",Prostate cancer subpanel,1.33
same,GI50,EKVX; [4],7.34 µM
same,Percentage Cell Growth,EKVX; single dose 10 µM,11.37%
same,activity at 10 µM,"MDA-MB-231/ATCC; MDA-MB-231/ATCC, single dose 10 µM, read-out: Percentage Cell Growth",-92.4%
same,GI50,"MDA-MB-231/ATCC; MDA-MB-231, MDA-MB-31/ATCC, five concentrations, SRB, read-out: GI50",8.03 µM
same,Percentage Cell Growth,HOP-62; single dose 10 µM,43.09%
same,GI50,HOP-62; [4],7.91 µM
same,"MID b, average sensitivity of all cell line of particular subpanel",CNS cancer subpanel,7.76 µM
same,"Selectivity, ratio MID a: MID b",CNS cancer subpanel,1.18
same,GI50,UACC-257; [4],7.91 µM
same,Percentage Cell Growth,UACC-257; single dose 10 µM,−10.66%
same,GI50,KM12; [4],8.47 µM
same,Percentage Cell Growth,KM12; single dose 10 µM,−81.93%
same,GI50,"IGROV1; Homo sapiens, IGROV-1, five concentrations, 48 h, SRB, read-out: GI50",6.42 µM
same,Percentage Cell Growth,IGROV1; single dose 10 µM,−84.81%
same,GI50,UO-31; [4],6.85 µM
same,Percentage Cell Growth,UO-31; single dose 10 µM,−96.35%
same,"MID b, average sensitivity of all cell line of particular subpanel",NSCL cancer subpanel,7.58 µM
same,"Selectivity, ratio MID a: MID b",NSCL cancer subpanel,1.21
same,GI50,TK-10; [4],10.1 µM
same,Percentage Cell Growth,TK-10; single dose 10 µM,−77.68%
same,"MID b, average sensitivity of all cell line of particular subpanel",Renal Cancer subpanel,12.52 µM
same,"Selectivity, ratio MID a: MID b",Renal Cancer subpanel,0.73
same,GI50,NCI-H322M; [4],7.32 µM
same,Percentage Cell Growth,NCI-H322M; single dose 10 µM,−81.08%
same,GI50,SK-MEL-2; [4],> 50 µM
same,Percentage Cell Growth,SK-MEL-2; single dose 10 µM,56.36%
